Test results published in article PMC6282425 (Pharmaceutical Biology, 2018).

Legend:
CYP1A2 = CYP1A2 (Homo sapiens, UniProt P05177); experiment: CYP1A2 inhibition in human liver microsomes (phenacetin O-deethylation); format: in vitro ADME; details: 100 μM bergenin, pooled HLMs
Experimental: (§1) All incubations were performed in triplicate, and the mean values were utilized.
(§2) There was a 3 min pre-incubation period (at 37 °C) before the reaction was initiated by adding an NADPH-generating system. The reaction was terminated by adding a 100 μL acetonitrile (10% trichloroacetic acid for CYP2A6) internal standard mix, and the solution was placed on ice. The mixture was centrifuged at 12,000 rpm for 10 min, and an aliquot (50 μL) of the supernatant was transferred for HPLC analysis. The instrument used in this study were Agilent 1260 series instrument (Palo Alto, CA, USA) with DAD and FLD detector, and the quantitative assay for the corresponding metabolites was performed as previously reported (Lang et al. [2017]; Zhang et al. [2017]).

CYP3A4 [1] = biological target: T1, CYP3A4 (Homo sapiens, UniProt P08684); experiment: CYP3A4 inhibition in human liver microsomes (testosterone 6β-hydroxylation); format: in vitro ADME
Experimental: as §1, §2
The enzyme kinetic parameters for the probe reaction were estimated from the best fit line using least-squares linear regression of the inverse substrate concentration versus the inverse velocity (Lineweaver–Burk plots), and the mean values were used to calculate Vmax and Km. […]

CYP2A6 = biological target: T2, CYP2A6 (Homo sapiens, UniProt P11509); experiment: CYP2A6 inhibition in human liver microsomes (coumarin 7-hydroxylation); format: in vitro ADME; details: 100 μM bergenin, pooled HLMs
T2 construct: from tissue; host or cells: pooled human liver microsomes
T2 sequence (P11509 1-494): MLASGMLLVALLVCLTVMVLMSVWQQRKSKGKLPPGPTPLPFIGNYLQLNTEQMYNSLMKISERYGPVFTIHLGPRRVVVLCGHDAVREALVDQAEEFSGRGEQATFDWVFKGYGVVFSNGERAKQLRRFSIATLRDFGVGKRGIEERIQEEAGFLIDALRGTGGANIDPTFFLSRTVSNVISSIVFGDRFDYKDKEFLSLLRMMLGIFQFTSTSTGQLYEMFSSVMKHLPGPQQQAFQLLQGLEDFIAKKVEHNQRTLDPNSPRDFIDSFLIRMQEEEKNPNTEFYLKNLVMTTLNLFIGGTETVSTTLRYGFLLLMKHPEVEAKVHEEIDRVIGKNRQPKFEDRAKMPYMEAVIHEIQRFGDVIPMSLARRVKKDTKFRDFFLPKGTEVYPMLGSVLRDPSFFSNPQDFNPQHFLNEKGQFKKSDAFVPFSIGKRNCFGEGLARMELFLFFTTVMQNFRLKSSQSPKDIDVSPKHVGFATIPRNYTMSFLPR
Experimental: as §1, §2

CYP2E1 [2] = biological target: T3, CYP2E1 (Homo sapiens, UniProt P05181); experiment: CYP2E1 inhibition in human liver microsomes (chlorzoxazone 6-hydroxylation); format: in vitro ADME
T3 construct: CYP2E1 catalyzed reactions (chlorzoxazone 6-hydroxylation) in pooled HLM; from tissue; host or cells: pooled human liver microsomes
Experimental: as §1, §2
(§3) The enzyme kinetic parameters for the probe reaction were estimated from the best fit line using least-squares linear regression of the inverse substrate concentration versus the inverse velocity (Lineweaver–Burk plots), and the mean values were used to calculate Vmax and Km. Inhibition data from the experiments that were conducted using multiple compound concentrations were represented by Dixon plots, and inhibition constant (Ki) values were calculated using non-linear regression according to the following equation: v = (VmaxS)/(Km(1 + I/Ki) + S), where I is the concentration of the compound, Ki is the inhibition constant, S is the concentration of the substrate and Km is the substrate concentration at half the maximum velocity (Vmax) of the reaction. The mechanism of the inhibition was inspected using the Lineweaver–Burk plots and the enzyme inhibition models. The data comparison was performed using the Student’s t-test and performed using IBM SPSS statistics 20 (SPSS Inc., Chicago, IL).

CYP2D6 = CYP2D6 (Homo sapiens, UniProt P10635); experiment: CYP2D6 inhibition in human liver microsomes (dextromethorphan O-demethylation); format: in vitro ADME; details: 100 μM bergenin, pooled HLMs
Experimental: as §1, §2

CYP2C9 [3] = biological target: T4, CYP2C9 (Homo sapiens, UniProt P11712); experiment: CYP2C9 inhibition in human liver microsomes (diclofenac 4′-hydroxylation); format: in vitro ADME; details: pooled HLMs
Experimental: as §1, §2, §3

CYP2C19 = CYP2C19 (Homo sapiens, UniProt P33261); experiment: CYP2C19 inhibition in human liver microsomes (S-mephenytoin 4-hydroxylation); format: in vitro ADME; details: 100 μM bergenin, pooled HLMs
Experimental: as §1, §2

CYP2C8 = biological target: T5, CYP2C8 (Homo sapiens, UniProt P10632); experiment: CYP2C8 inhibition in human liver microsomes (paclitaxel 6α-hydroxylation); format: in vitro ADME; details: 100 μM bergenin, pooled HLMs
T5 construct: from tissue; host or cells: pooled human liver microsomes
T5 sequence (P10632 1-490): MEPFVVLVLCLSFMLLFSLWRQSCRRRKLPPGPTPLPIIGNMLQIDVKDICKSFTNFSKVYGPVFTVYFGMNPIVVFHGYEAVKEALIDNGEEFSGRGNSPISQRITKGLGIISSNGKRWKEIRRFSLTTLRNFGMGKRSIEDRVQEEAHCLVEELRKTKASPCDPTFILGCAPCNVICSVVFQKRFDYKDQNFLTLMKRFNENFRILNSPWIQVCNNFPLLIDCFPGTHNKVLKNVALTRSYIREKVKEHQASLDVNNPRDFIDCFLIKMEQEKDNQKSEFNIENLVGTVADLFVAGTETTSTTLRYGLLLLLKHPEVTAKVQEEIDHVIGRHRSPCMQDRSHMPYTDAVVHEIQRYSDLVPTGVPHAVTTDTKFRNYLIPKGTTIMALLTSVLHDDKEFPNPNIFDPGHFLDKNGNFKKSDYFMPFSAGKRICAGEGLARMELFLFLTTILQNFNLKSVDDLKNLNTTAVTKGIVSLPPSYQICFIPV
Experimental: as §1, §2

CYP3A4 [4] = biological target: T1, CYP3A4; experiment: Time-dependent inhibition study in HLMs, CYP3A4; format: in vitro ADME
Experimental: (§4) After incubation, an aliquot (20 μL) was transferred to another incubation tube (final volume 200 μL) containing an NADPH-generating system and probe substrates whose final concentrations were approximate to Km. Then, further incubations were performed to measure the residual activity. After being incubated for different time (30 min for CYP2E1 and CYP2C9, 10 min for CYP3A4), the reactions were terminated by adding a 100 μL acetonitrile internal standard mix and then placed on ice; the corresponding metabolites were determined by HPLC.
Figure 7. […] The initial rate constant of inactivation of CYP3A4 by each concentration (Kobs) was determined through linear regression analysis of the natural logarithm of the percentage of remaining activity versus pre-incubation time (A).

CYP2E1 [5] = biological target: T3, CYP2E1; experiment: Time-dependent inhibition study in HLMs, CYP2E1; format: in vitro ADME; details: bergenin 20 μM, pre-incubation with HLM and NADPH for 30 min
Experimental: as §4

CYP2C9 [6] = biological target: T4, CYP2C9; experiment: Time-dependent inhibition study in HLMs, CYP2C9; format: in vitro ADME; details: bergenin 20 μM, pre-incubation with HLM and NADPH for 30 min
Experimental: as §4

[7] = design: method as in Pan et al. [2016]; details: rats, oral dose 100 mg/kg, ref Pan et al. [2016], cited from earlier work
[8] = Lineweaver–Burk plots, pooled HLMs

T1 sequence (P08684 whole entry): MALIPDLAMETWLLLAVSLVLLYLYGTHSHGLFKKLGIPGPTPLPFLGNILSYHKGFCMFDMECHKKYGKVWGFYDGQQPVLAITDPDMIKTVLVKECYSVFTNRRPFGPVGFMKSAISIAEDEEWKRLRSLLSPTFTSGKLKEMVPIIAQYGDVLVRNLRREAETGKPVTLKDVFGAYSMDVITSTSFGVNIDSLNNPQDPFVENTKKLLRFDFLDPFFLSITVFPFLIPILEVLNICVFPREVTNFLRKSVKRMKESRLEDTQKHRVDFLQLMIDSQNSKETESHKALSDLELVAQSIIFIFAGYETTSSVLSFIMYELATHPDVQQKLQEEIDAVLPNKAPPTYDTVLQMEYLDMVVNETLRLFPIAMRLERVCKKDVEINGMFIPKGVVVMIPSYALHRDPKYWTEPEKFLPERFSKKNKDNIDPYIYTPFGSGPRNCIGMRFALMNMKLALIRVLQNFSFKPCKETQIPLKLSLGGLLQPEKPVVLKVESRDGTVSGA
T3 sequence (P05181 whole entry): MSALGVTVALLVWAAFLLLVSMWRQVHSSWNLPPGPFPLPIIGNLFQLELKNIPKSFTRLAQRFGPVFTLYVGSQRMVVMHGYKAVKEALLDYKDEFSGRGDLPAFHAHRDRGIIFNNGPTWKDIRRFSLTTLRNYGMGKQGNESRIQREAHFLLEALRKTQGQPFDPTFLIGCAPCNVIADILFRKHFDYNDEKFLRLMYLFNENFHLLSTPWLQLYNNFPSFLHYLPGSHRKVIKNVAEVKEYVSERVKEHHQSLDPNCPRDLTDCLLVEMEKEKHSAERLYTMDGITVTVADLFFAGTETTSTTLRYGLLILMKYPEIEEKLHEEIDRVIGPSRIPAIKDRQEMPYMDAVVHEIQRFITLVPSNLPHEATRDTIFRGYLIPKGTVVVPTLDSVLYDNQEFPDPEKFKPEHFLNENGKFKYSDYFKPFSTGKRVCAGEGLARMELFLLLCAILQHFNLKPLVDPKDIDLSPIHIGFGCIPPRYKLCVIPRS
T4 sequence (P11712 whole entry): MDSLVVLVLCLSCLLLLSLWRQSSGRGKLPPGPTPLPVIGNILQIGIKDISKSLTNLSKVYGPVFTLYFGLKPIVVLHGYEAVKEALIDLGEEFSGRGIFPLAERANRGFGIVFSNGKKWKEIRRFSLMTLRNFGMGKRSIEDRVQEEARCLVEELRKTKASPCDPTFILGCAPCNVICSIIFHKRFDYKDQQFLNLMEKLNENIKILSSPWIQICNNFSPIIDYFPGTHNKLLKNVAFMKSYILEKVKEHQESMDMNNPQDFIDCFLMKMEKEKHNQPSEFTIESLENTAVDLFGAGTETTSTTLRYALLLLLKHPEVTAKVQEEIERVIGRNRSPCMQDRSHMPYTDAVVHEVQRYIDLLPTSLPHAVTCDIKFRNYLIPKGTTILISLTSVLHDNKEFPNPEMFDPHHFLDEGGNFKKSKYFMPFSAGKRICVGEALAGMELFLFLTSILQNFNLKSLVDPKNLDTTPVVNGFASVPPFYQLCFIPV
Chain of CYP2C19 (P33261 whole entry): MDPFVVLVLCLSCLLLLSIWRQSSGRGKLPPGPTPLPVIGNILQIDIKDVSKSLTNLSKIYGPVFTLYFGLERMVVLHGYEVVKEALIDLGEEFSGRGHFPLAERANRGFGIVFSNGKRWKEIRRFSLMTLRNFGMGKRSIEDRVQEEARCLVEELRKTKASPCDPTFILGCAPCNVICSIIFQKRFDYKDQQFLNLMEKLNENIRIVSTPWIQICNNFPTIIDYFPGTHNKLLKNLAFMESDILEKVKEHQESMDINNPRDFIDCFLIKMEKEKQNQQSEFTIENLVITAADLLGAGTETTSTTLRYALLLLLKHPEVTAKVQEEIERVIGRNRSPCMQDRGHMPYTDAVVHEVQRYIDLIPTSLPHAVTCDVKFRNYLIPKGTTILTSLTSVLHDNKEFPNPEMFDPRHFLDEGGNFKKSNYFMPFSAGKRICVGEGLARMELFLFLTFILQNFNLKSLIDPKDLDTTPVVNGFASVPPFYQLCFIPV
Chain of CYP2D6 (P10635 whole entry): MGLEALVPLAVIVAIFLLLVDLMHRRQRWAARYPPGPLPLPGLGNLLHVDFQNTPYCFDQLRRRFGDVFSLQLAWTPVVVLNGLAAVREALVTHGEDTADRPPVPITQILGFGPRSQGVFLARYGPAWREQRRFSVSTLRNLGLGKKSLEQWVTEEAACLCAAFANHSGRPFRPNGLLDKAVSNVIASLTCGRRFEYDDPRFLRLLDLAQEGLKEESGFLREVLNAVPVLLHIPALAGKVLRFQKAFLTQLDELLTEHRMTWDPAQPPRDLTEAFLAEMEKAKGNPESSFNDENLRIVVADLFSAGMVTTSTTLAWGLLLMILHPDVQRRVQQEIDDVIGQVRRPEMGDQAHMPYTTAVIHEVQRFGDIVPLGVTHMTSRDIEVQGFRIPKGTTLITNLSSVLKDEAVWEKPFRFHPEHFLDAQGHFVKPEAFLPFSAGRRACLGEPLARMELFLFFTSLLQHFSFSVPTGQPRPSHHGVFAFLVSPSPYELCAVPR
Chain of CYP1A2 (P05177 whole entry): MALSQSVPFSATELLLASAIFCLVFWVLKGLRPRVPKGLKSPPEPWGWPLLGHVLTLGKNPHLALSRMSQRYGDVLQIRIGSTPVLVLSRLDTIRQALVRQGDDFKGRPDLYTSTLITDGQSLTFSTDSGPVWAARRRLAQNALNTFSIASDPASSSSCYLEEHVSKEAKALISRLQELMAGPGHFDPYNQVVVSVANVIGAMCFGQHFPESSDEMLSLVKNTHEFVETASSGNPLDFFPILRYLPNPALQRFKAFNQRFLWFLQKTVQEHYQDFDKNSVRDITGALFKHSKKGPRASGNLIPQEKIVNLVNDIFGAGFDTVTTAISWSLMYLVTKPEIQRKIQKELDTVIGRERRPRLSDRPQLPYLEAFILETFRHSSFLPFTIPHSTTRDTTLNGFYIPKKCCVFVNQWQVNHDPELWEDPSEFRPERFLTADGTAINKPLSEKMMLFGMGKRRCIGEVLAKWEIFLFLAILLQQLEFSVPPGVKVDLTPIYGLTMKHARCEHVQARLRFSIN

Q: With COc1c(O)cc2c(c1O)[C@@H]1O[C@H](CO)[C@@H](O)[C@H](O)[C@H]1OC2=O [bergenin, Bergenin] as the compound, how does the “Inhibition of CYP1A2 activity” value (CYP1A2) read?
A: did not inhibit

Q: And the “Inhibition mode CYP3A4” value (CYP3A4 [1]; [8])?
A: non-competitive

Q: What about the activity at 100 μM (CYP3A4 [1]; human, pooled human liver microsomes, pH 7.4, probe testosterone (6β-hydroxylation), read-out: CYP3A4 activity, % of control activity) of the same compound?
A: 11%

Q: And the “Inhibition of CYP2A6 activity” value (CYP2A6)?
A: did not inhibit

Q: What about the “Inhibition mode CYP2E1” value (CYP2E1 [2]; [8]) of the same compound?
A: competitive

Q: What about the activity at 100 μM (CYP2E1 [2]; human, pooled human liver microsomes, pH 7.4, probe chlorzoxazone (6-hydroxylation), read-out: CYP2E1 activity, % of control activity) of the same compound?
A: 12.2%

Q: What about the IC50 (CYP2E1 [2]; pooled HLMs, chlorzoxazone 6-hydroxylation) of the same compound?
A: 22.8 µM

Q: And the Ki (CYP2E1 [2]; pooled HLMs, secondary Lineweaver–Burk plot, chlorzoxazone 25–200 μM)?
A: 11.4 µM

Q: What about the “Inhibition of CYP2D6 activity” value (CYP2D6) of the same compound?
A: did not inhibit

Q: What about the “Inhibition mode CYP2C9” value (CYP2C9 [3]; Lineweaver–Burk plots) of the same compound?
A: competitive

Q: What about the IC50 (CYP2C9 [3]; diclofenac 4′-hydroxylation) of the same compound?
A: 15.1 µM

Q: What about the Ki (CYP2C9 [3]; secondary Lineweaver–Burk plot, diclofenac 2–20 μM) of the same compound?
A: 8.89 µM

Q: What about the “Inhibition of CYP2C19 activity” value (CYP2C19) of the same compound?
A: did not inhibit

Q: What about the “Inhibition of CYP2C8 activity” value (CYP2C8) of the same compound?
A: did not inhibit

Q: What about the “Time-dependent inhibition, activity of CYP3A4” value (CYP3A4 [4]; bergenin 20 μM, pre-incubation with HLM and NADPH for 30 min) of the same compound?
A: decreased with the incubation time

Q: What about the “CYP3A4 inactivated each minute” value (CYP3A4 [4]; saturating concentration of bergenin incubated with HLM, implied by Kinact) of the same compound?
A: approximately 2.5%

Q: And the “Time-dependent inhibition, activity of CYP2E1” value (CYP2E1 [5])?
A: not affected

Q: And the “Time-dependent inhibition, activity of CYP2C9” value (CYP2C9 [6])?
A: not affected

Q: What about the “Plasma Cmax” value [7] of the same compound?
A: less than 300 ng/mL

Q: What about the Cmax ([7]; read-out: Plasma Cmax) of the same compound?
A: < 900 nM
